Values after ≈ are worked out from the molar mass of the structure shown. Read-outs that look alike come from different tables or passages of the source.
Assays:
Candida albicans = experiment: Minimal Inhibitory Concentration (MIC) assay, broth microdilution per CLSI; assay type: cell-based; settings: Candida albicans, read-out: Minimum Inhibitory Concentrations against Yeast Isolates, Candida albicans;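 note: two read times 24 hr and 48 hr of incubation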
How it was run: (§1)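 Read-out is visual: MIC is the lowest compound concentration preventing visible growth after approximately 24-48 hr at 35° C. Testing used CLSI microdilution in MOPS-buffered RPMI (pH 7.0) with serial 1:1 compound dilutions made in DMSO.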

Candida glabrata = experiment: as above; assay type: cell-based; settings: Nakaseomyces glabratus, read-out: Minimum Inhibitory Concentrations against Yeast Isolates, Candida glabrata;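 note: two read times 24 hr and 48 hr of incubation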
How it was run: as §1

Candida parapsilosis = experiment: as above; assay type: cell-based; settings: Lodderomyces parapsilosis, read-out: Minimum Inhibitory Concentrations against Yeast Isolates, Candida parapsilosis;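 note: two read times 24 hr and 48 hr of incubation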
How it was run: as §1

C. glabrata = experiment: Checkerboard FIC assay in combination with fluconazole (MIC alone and in combination, FICI); assay type: cell-based, Candida glabrata; settings: for FICI of combination resulting in fluconazole MIC of: 2 ug/mL / FICI of combination resulting in fluconazole MIC of: 4 ug/mL / FICI of combination resulting in fluconazole MIC of: 8 ug/mL: FICI calculated using a fluconazole MIC of 16 μg/mL; for FICI of combination resulting in fluconazole MIC of: 2 ug/mL (value in parenthesis) / FICI of combination resulting in fluconazole MIC of: 4 ug/mL (value in parenthesis) / FICI of combination resulting in fluconazole MIC of: 8 ug/mL (value in parenthesis): FICI using a fluconazole MIC of 128 μg/mL; for MIC: Nakaseomyces glabratus; for Concentration of Methylgene compound to synergize fluconazole MIC to 2 ug/mL / Concentration of Methylgene compound to synergize fluconazole MIC to 4 ug/mL / Concentration of Methylgene compound to synergize fluconazole MIC to 8 ug/mL: in combination with fluconazole; for Concentration of Methylgene compound to synergize fluconazole MIC to 2 ug/mL: fluconazole MIC lowered to 2 ug/mL; for Concentration of Methylgene compound to synergize fluconazole MIC to 4 ug/mL: fluconazole MIC lowered to 4 ug/mL; for Concentration of Methylgene compound to synergize fluconazole MIC to 8 ug/mL: fluconazole MIC lowered to 8 ug/mL; for Multiple of compound MIC to synergize fluconazole MIC to 2 ug/mL / Multiple of compound MIC to synergize fluconazole MIC to 4 ug/mL / Multiple of compound MIC to synergize fluconazole MIC to 8 ug/mL: concentration in combination as multiple of the compound's MIC alone; for Multiple of compound MIC to synergize fluconazole MIC to 2 ug/mL: fluconazole MIC 2 ug/mL; for Multiple of compound MIC to synergize fluconazole MIC to 4 ug/mL: fluconazole MIC 4 ug/mL; for Multiple of compound MIC to synergize fluconazole MIC to 8 ug/mL: fluconazole MIC 8 ug/mL
How it was run: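 A fluconazole synergy checkerboard was run against C. glabrata in MOPS-buffered RPMI (pH 7.0) for about 48 h at 35 °C. Each agent was diluted 2-fold, with one row and one column holding each agent alone for MIC determination. FICI was calculated from these MICs, using a 0.5 McFarland inoculum diluted 1:100 per CLSI.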

[1] = 24 hr reading (first value of cell 24 hr/48 hr)
[2] = 48 hr reading (second value of cell 24 hr/48 hr)
[3] = MIC of the example compound alone against C. glabrata in the checkerboard assay, approximately 48 hr, read-out: Methylgene MIC
[4] = test compound alone, C. glabrata, approx. 48 hr at 35° C., read-out: Compound MIC

| SMILES | MIC (Candida albicans; [1]) [µg/mL] | MIC (Candida albicans; [2]) [µg/mL] | MIC (Candida glabrata; [1]) [µg/mL] | MIC (Candida glabrata; [2]) [µg/mL] | MIC (Candida parapsilosis; [1]) [µg/mL] | MIC (Candida parapsilosis; [2]) [µg/mL] | FICI of combination resulting in fluconazole MIC of: 2 ug/mL (C. glabrata; C. glabrata) | FICI of combination resulting in fluconazole MIC of: 4 ug/mL (C. glabrata; C. glabrata) | FICI of combination resulting in fluconazole MIC of: 8 ug/mL (C. glabrata; C. glabrata) | FICI of combination resulting in fluconazole MIC of: 2 ug/mL (value in parenthesis) (C. glabrata; C. glabrata) | FICI of combination resulting in fluconazole MIC of: 4 ug/mL (value in parenthesis) (C. glabrata; C. glabrata) | FICI of combination resulting in fluconazole MIC of: 8 ug/mL (value in parenthesis) (C. glabrata; C. glabrata) | MIC (C. glabrata; [3]) [µg/mL] | MIC (C. glabrata; [4]) [µg/mL] | Concentration of Methylgene compound to synergize fluconazole MIC to 2 ug/mL (C. glabrata; C. glabrata) [µg/mL] | Concentration of Methylgene compound to synergize fluconazole MIC to 4 ug/mL (C. glabrata; C. glabrata) [µg/mL] | Concentration of Methylgene compound to synergize fluconazole MIC to 8 ug/mL (C. glabrata; C. glabrata) [µg/mL] | Multiple of compound MIC to synergize fluconazole MIC to 2 ug/mL (C. glabrata) | Multiple of compound MIC to synergize fluconazole MIC to 4 ug/mL (C. glabrata) | Multiple of compound MIC to synergize fluconazole MIC to 8 ug/mL (C. glabrata) |
| --- | --- | --- | --- | --- | --- | --- | --- | --- | --- | --- | --- | --- | --- | --- | --- | --- | --- | --- | --- | --- |
| O=C(Cc1ccc(CCCCc2ccc(C(=O)N3CCOCCOCCOCCOCCOCC3)cc2)cc1)NO [Example 24, 2-(4-(4-(4-(1,4,7,10,13-pentaoxa-16-azacyclooctadecane-16-carbonyl)phenyl)butyl)phenyl)-N-hydroxyacetamide] | > 64 | > 64 | 16 (≈ 27.9 µM) | 64 (≈ 112 µM) | > 64 | > 64 | 0.313 | 0.250 | 0.313 | 0.266 | 0.156 | 0.125 | > 16 | > 16 | 8 | 4 | 2 | – | – | – |
| O=C(Cc1ccc(CCC/C(=N\O)c2ccccc2)cc1)NO [Example 27, (E)-N-hydroxy-2-(4-(4-(hydroxyimino)-4-phenylbutyl)phenyl) acetamide] | 64 (≈ 205 µM) | 64 (≈ 205 µM) | 8 (≈ 25.6 µM) | 16 (≈ 51.2 µM) | > 64 | > 64 | 0.313 | 0.375 | 0.375 | 0.266 | 0.281 | 0.188 | 16 | 16 | 4 | 4 | 2 | (¼x) | (¼x) | (⅛x) |
| O=C(Cc1ccc(CCCC(F)(F)c2ccccc2)cc1)NO [Example 29, 2-(4-(4,4-difluoro-4-phenylbutyl)phenyl)-N-hydroxyacetamide] | 1 (≈ 3.13 µM) | 2 (≈ 6.26 µM) | 0.5 (≈ 1.57 µM) | 1 (≈ 3.13 µM) | 1 (≈ 3.13 µM) | 2 (≈ 6.26 µM) | 0.563 | 0.625 | 0.500 | 0.516 | 0.531 | 0.313 | 1 | 1 | 0.5 | 0.5 | 0.25 | (½x) | (½x) | (¼x) |
| Nc1ccc(CCCCc2ccc(CC(=O)NO)cc2)cc1 [Example 31, 2-(4-(4-(4-aminophenyl)butyl)phenyl)-N-hydroxyacetamide] | > 16 | > 16 | > 8 | > 8 | > 16 | > 16 | 0.375 | 0.500 | 0.625 | 0.266 | 0.281 | 0.188 | 4 | 4 | 1 | 1 | 0.5 | (¼x) | (¼x) | (⅛x) |

Continued, values first:

| MIC (Candida albicans; [1]) [µg/mL] | MIC (Candida albicans; [2]) [µg/mL] | MIC (Candida glabrata; [1]) [µg/mL] | MIC (Candida glabrata; [2]) [µg/mL] | MIC (Candida parapsilosis; [1]) [µg/mL] | MIC (Candida parapsilosis; [2]) [µg/mL] | FICI of combination resulting in fluconazole MIC of: 2 ug/mL (C. glabrata; C. glabrata) | FICI of combination resulting in fluconazole MIC of: 4 ug/mL (C. glabrata; C. glabrata) | FICI of combination resulting in fluconazole MIC of: 8 ug/mL (C. glabrata; C. glabrata) | FICI of combination resulting in fluconazole MIC of: 2 ug/mL (value in parenthesis) (C. glabrata; C. glabrata) | FICI of combination resulting in fluconazole MIC of: 4 ug/mL (value in parenthesis) (C. glabrata; C. glabrata) | FICI of combination resulting in fluconazole MIC of: 8 ug/mL (value in parenthesis) (C. glabrata; C. glabrata) | MIC (C. glabrata; [3]) [µg/mL] | MIC (C. glabrata; [4]) [µg/mL] | Concentration of Methylgene compound to synergize fluconazole MIC to 2 ug/mL (C. glabrata; C. glabrata) [µg/mL] | Concentration of Methylgene compound to synergize fluconazole MIC to 4 ug/mL (C. glabrata; C. glabrata) [µg/mL] | Concentration of Methylgene compound to synergize fluconazole MIC to 8 ug/mL (C. glabrata; C. glabrata) [µg/mL] | Multiple of compound MIC to synergize fluconazole MIC to 2 ug/mL (C. glabrata) | Multiple of compound MIC to synergize fluconazole MIC to 4 ug/mL (C. glabrata) | Multiple of compound MIC to synergize fluconazole MIC to 8 ug/mL (C. glabrata) | SMILES |
| --- | --- | --- | --- | --- | --- | --- | --- | --- | --- | --- | --- | --- | --- | --- | --- | --- | --- | --- | --- | --- |
| > 64 | > 64 | 16 (≈ 53.4 µM) | 64 (≈ 214 µM) | > 64 | > 64 | 0.563 | 0.375 | 0.375 | 0.516 | 0.281 | 0.188 | > 16 | > 16 | 16 | 8 | 4 | – | – | – | O=C(Cc1ccc(CCCC(O)c2ccccc2)cc1)NO (stereo not shown) [Example 25, N-hydroxy-2-(4-(4-hydroxy-4-phenylbutyl)phenyl)acetamide] |
| 4 (≈ 13.3 µM) | 8 (≈ 26.5 µM) | 2 (≈ 6.64 µM) | 8 (≈ 26.5 µM) | 4 (≈ 13.3 µM) | 8 (≈ 26.5 µM) | 0.313 | 0.250 | 0.313 | 0.266 | 0.156 | 0.125 | 8 | 8 | 2 | 1 | 0.5 | (¼x) | (⅛x) | ( 1/16x) | O=C(Cc1ccc(CCCC(F)c2ccccc2)cc1)NO (stereo not shown) [Example 26, 2-(4-(4-fluoro-4-phenylbutyl)phenyl)-N-hydroxyacetamide] |
| 32 (≈ 108 µM) | 32 (≈ 108 µM) | 8 (≈ 26.9 µM) | 16 (≈ 53.8 µM) | > 32 | > 32 | 0.313 | 0.250 | 0.313 | 0.266 | 0.156 | 0.125 | 16 | 16 | 4 | 2 | 1 | (¼x) | (⅛x) | ( 1/16x) | O=C(Cc1ccc(CCCC(=O)c2ccccc2)cc1)NO [Example 28, N-hydroxy-2-(4-(4-oxo-4-phenylbutyl)phenyl)acetamide] |
| 0.5 (≈ 1.68 µM) | 0.5 (≈ 1.68 µM) | 0.25 (≈ 0.841 µM) | 0.5 (≈ 1.68 µM) | 0.12 (≈ 0.403 µM) | 0.25 (≈ 0.841 µM) | 0.563 | 0.365 | 0.490 | 0.516 | 0.271 | 0.303 | 0.5 | 0.5 | 0.25 | 0.12 | 0.12 | (½x) | (¼x) | (¼x) | CC(CCCc1ccc(CC(=O)NO)cc1)c1ccccc1 (stereo not shown) [Example 30, N-hydroxy-2-(4-(4-phenylpentyl)phenyl)acetamide] |
